According to patent publication US20260374754A1, “N-((ISOQUINOLIN-6-YL)METHYL)-1H-PYRAZOLE-4-CARBOXAMIDE DERIVATIVES AS PLASMA KALLIKREIN INHIBITORS FOR THE TREATMENT OF HEREDITARY ANGIODEMA” (Takeda Pharmaceutical Company Limited, priority 2022, published 2026):
pEC50: −log10 of the molar value. Structures can show the parent of a compound that is named as a salt.

Biological target: human activated kallikrein enzyme (Homo sapiens, UniProt P03952)
Assay: Inhibition of human activated plasma kallikrein, fluorogenic PFR-AMC substrate, 500 pM enzyme format
Format: biochemical
Details: 500 pM activated kallikrein; 300 μM PFR-AMC; 30 min preincubation; 10 min room temperature; pH 7.5; read-out: Primary Dose Response Assay: Average EC50
Outline: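 500 pM activated kallikrein preincubated 30 min at room temperature with inhibitors in pH 7.5 Tris/EDTA/NaCl buffer with PEG-400 and Triton X-100. Reaction started with 300 μM PFR-AMC, run 10 min at room temperature; AMC fluorescence read at ex 380/em 460 nm.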

Chain of human activated kallikrein enzyme (P03952 391-638 limits assumed): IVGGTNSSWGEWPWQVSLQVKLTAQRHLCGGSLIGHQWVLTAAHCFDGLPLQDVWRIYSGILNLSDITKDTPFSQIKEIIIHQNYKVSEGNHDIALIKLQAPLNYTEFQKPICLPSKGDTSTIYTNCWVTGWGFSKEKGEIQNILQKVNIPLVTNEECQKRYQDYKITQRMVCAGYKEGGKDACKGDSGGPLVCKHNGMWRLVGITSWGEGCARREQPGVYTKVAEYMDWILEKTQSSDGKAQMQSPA
Chain of human activated kallikrein enzyme (P03952 20-390 partner limits assumed): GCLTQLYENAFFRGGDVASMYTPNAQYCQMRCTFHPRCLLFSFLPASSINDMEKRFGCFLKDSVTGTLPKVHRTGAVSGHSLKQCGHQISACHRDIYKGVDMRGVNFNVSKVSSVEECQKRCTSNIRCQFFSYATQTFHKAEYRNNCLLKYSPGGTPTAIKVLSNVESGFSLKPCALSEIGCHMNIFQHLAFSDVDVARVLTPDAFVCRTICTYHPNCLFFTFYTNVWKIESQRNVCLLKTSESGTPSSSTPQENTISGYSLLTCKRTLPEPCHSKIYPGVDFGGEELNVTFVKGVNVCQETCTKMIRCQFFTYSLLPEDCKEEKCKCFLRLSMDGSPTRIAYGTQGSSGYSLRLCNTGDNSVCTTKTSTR

SMILES | pEC50
Cc1cc2c(N)nccc2c(C)c1CNc1cc(OCc2ccc(Cn3cccc(C4CC4)c3=O)cc2)ncn1 [Example 303, 1-(4-(((6-(((1-amino-5,7-dimethylisoquinolin-6-yl)methyl)amino)pyrimidin-4-yl)oxy)methyl)benzyl)-3-cyclopropylpyridin-2(1H)-one, formic acid salt] | 8.00 to 9.00
CCOC(=O)[C@@H]1[C@@H]2CN(C(=O)Cc3ccc(Cn4cc(C(=O)NCc5c(C)cc6c(N)nccc6c5C)cn4)cc3)C[C@@H]21 [Example 211, ethyl (1R,5S,6s)-3-(2-(4-((4-(((1-amino-5,7-dimethylisoquinolin-6-y1)methyl)carbamoyl)-1H-pyrazol-1-yl)methyl)phenyl)acetyl)-3-azabicyclo[3.1.0]hexane-6-carboxylate] | > 9.00
Cc1ccc2nc(Cn3cc(C(=O)NCc4c(C)cc5c(N(C(=O)OC(C)C)C(=O)OC(C)C)nccc5c4C)cn3)cn2c1 [Example 3, diisopropyl (5,7-dimethyl-6-((1-((6-methylimidazo[1,2-a]pyridin-2-yl)methyl)-1H-pyrazole-4-carboxamido)methyl)isoquinolin-1-yl)iminodicarbonate] | 6.00 to 7.00
Cc1cc2c(N)nccc2c(C)c1CNC(=O)c1cnn(Cc2cnc3cc(Cl)ccc3c2)c1 [Example 61, N-((1-amino-5,7-dimethylisoquinolin-6-yl)methyl)-1-((7-chloroquinolin-3-yl)methyl)-1H-pyrazole-4-carboxamide] | > 9.00
Cc1cc2c(N)nccc2c(C)c1CNC(=O)c1cnn(Cc2ccc(F)cc2)c1 [Example 39, N-((1-amino-5,7-dimethylisoquinolin-6-yl)methyl)-1-(4-fluorobenzyl)-1H-pyrazole-4-carboxamide] | 6.00 to 7.00
Cc1cc2c(N)nccc2c(C)c1CNc1cc(NCc2ccc3ncccc3c2)ncn1 [Example 337, N^4-((1-amino-5,7-dimethylisoquinolin-6-yl)methyl)-N^6-(quinolin-6-ylmethyl)pyrimidine-4,6-diamine] | 8.00 to 9.00
Cc1cc2c(N)nccc2c(C)c1CNc1cc(N2C[C@@H](O[Si](C)(C)C(C)(C)C)C[C@@H]2c2cn3cc(C4CC4)ccc3n2)ncn1 [Example 512, 6-(((6-((2R,4S)-4-((tert-butyldimethylsilyl)oxy)-2-(6-cyclopropylimidazo[1,2-a]pyridin-2-yl)pyrrolidin-1-yl)pyrimidin-4-yl)amino)methyl)-5,7-dimethylisoquinolin-1-amine] | 8.00 to 9.00
Cc1cc2c(N)nccc2c(C)c1CNC(=O)c1cnn(Cc2ccc(CC(=O)N(C)c3ccccc3)cc2)c1 [Example 228, N-((1-amino-5,7-dimethylisoquinolin-6-yl)methyl)-1-(4-(2-(methyl(phenyl)amino)-2-oxoethyl)benzyl)-1H-pyrazole-4-carboxamide] | 8.00 to 9.00
CCc1c(Cl)ccc2nc(Cn3cc(C(=O)NCc4c(C)cc5c(N)nccc5c4C)cn3)cn12 [Example 141, N-((1-amino-5,7-dimethylisoquinolin-6-yl)methyl)-1-((6-chloro-5-ethylimidazo[1,2-a]pyridin-2-yl)methyl)-1H-pyrazole-4-carboxamide] | > 9.00
Cc1ccc2nc(Cn3cc(C(=O)NCc4c(C)cc5c(NC(=O)OC(C)C)nccc5c4C)cn3)cn2c1 [Example 6, isopropyl (5,7-dimethyl-6-((1-((6-methylimidazo[1,2-a]pyridin-2-yl)methyl)-1H-pyrazole-4-carboxamido)methyl)isoquinolin-1-yl)carbamate] | 7.00 to 8.00
Cc1cc2c(N)nccc2c(C)c1CNc1cc(NCc2ccc(OCC(=O)N3CC4CC4C3)cc2)ncn1 (stereo not drawn) [Example 344, 2-(4-(((6-(((1-amino-5,7-dimethylisoquinolin-6-yl)methyl)amino)pyrimidin-4-yl)amino)methyl)phenoxy)-1-(3-azabicyclo[3.1.0]hexan-3-yl)ethan-1-one, formic acid salt] | > 9.00
Cc1cc2c(N)nccc2c(C)c1CNc1cc(OCc2ccccc2)cnn1 [Example 443, 6-(((5-(benzyloxy)pyridazin-3-yl)amino)methyl)-5,7-dimethylisoquinolin-1-amine] | 6.00 to 7.00
Cc1cc2c(N)nccc2c(C)c1CNC(=O)c1cnn(Cc2nc3ccccc3n2C(C)C)c1 [Example 71, N-((1-amino-5,7-dimethylisoquinolin-6-yl)methyl)-1-((1-isopropyl-1H-benzo[d]imidazol-2-yl)methyl)-1H-pyrazole-4-carboxamide] | 6.00 to 7.00
CCOC(=O)CCc1cc(C2CC2)cc2cc(COc3cc(NCc4c(C)cc5c(N)nccc5c4C)ncn3)nn12 [Example 270, ethyl 3-(2-(((6-(((1-amino-5,7-dimethylisoquinolin-6-yl)methyl)amino)pyrimidin-4-yl)oxy)methyl)-5-cyclopropylpyrazolo[1,5-a]pyridin-7-yl)propanoate] | 8.00 to 9.00
Cc1cc2c(N)nccc2c(C)c1CNC(=O)c1cnn(Cc2ccc(CC(=O)N3CCC3)cc2)c1 [Example 219, N-((1-amino-5,7-dimethylisoquinolin-6-yl)methyl)-1-(4-(2-(azetidin-1-yl)-2-oxoethyl)benzyl)-1H-pyrazole-4-carboxamide] | > 9.00
Cc1cc2c(N)nccc2c(C)c1CNC(=O)c1cnn(Cc2ccc(CC(N)=O)cc2)c1 [Example 231, 1-(4-(2-amino-2-oxoethyl)benzyl)-N-((1-amino-5,7-dimethylisoquinolin-6-yl)methyl)-1H-pyrazole-4-carboxamide] | 7.00 to 8.00
Cc1cc2c(N)nccc2c(C)c1CNc1cc2c(Cc3ccc4ccccc4c3)cn(C)c2cn1 [Example 524, 5,7-dimethyl-6-(((1-methyl-3-(naphthalen-2-ylmethyl)-1H-pyrrolo[2,3-c]pyridin-5-yl)amino)methyl)isoquinolin-1-amine] | < 6.00
Cc1cc2c(N)nccc2c(C)c1CNC(=O)c1cnn(Cc2ccc3c(Br)cccc3c2)c1 [Example 113, N-((1-amino-5,7-dimethylisoquinolin-6-yl)methyl)-1-((5-bromonaphthalen-2-yl)methyl)-1H-pyrazole-4-carboxamide] | 8.00 to 9.00
Cc1cc2c(N)nccc2c(C)c1CNc1cc(NCc2ccc(OCc3ncco3)cc2)ncn1 [Example 351, N^4-((1-amino-5,7-dimethylisoquinolin-6-yl)methyl)-N^6-(4-(oxazol-2-ylmethoxy)benzyl)pyrimidine-4,6-diamine, formic acid salt] | 8.00 to 9.00
Cc1cc2c(N)nccc2c(C)c1CNc1cc(NCc2ccc(Cc3ncccc3Cl)cc2)ncn1 [Example 365, N^4-((1-amino-5,7-dimethylisoquinolin-6-yl)methyl)-N^6-(4-((3-chloropyridin-2-yl)methyl)benzyl)pyrimidine-4,6-diamine] | 8.00 to 9.00
Cc1cc2c(N)nccc2c(C)c1CNc1cc(OCc2cn3cc(C4CC4)ccc3n2)nc(CCC(=O)O)n1 [Example 293, 3-(4-(((1-amino-5,7-dimethylisoquinolin-6-yl)methyl)amino)-6-((6-cyclopropylimidazo[1,2-a]pyridin-2-yl)methoxy)pyrimidin-2-yl)propanoic acid] | > 9.00
Cc1cc2c(N)nccc2c(C)c1CNc1cc(NCc2ccc(Cn3cc(Cl)cc(Cl)c3=O)cc2)ncn1 [Example I-463, 1-(4-(((6-(((1-amino-5,7-dimethylisoquinolin-6-yl)methyl)amino)pyrimidin-4-yl)amino)methyl)benzyl)-3,5-dichloropyridin-2(1H)-one] | > 9.00
Cc1cc2c(N)nccc2c(C)c1CNC(=O)c1cnn(Cc2ccc(CC(=O)N3CCC3)c(Cl)c2)c1 [Example I-473, N-((1-amino-5,7-dimethylisoquinolin-6-yl)methyl)-1-(4-(2-(azetidin-1-yl)-2-oxoethyl)-3-chlorobenzyl)-1H-pyrazole-4-carboxamide] | > 9.00
Cc1cc2c(N)nccc2c(C)c1CNc1cc(OCc2ccc(Cn3cccn3)cn2)cnn1 [Example 446, 6-(((5-((5-((1H-pyrazol-1-yl)methyl)pyridin-2-yl)methoxy)pyridazin-3-yl)amino)methyl)-5,7-dimethylisoquinolin-1-amine] | > 9.00
CCc1cnc2ccc(Cn3cc(C(=O)NCc4c(C)cc5c(N)nccc5c4C)cn3)cc2c1 [Example 124, N-((1-amino-5,7-dimethylisoquinolin-6-yl)methyl)-1-((3-ethylquinolin-6-yl)methyl)-1H-pyrazole-4-carboxamide] | > 9.00
Cc1cc2c(N)nccc2c(C)c1CNc1cc(OCc2nc3ccc(C4CC4)cn3n2)nc(CCC(=O)O)n1 [Example 295, 3-(4-(((1-amino-5,7-dimethylisoquinolin-6-yl)methyl)amino)-6-((6-cyclopropyl-[1,2,4]triazolo[1,5-a]pyridin-2-yl)methoxy)pyrimidin-2-yl)propanoic acid] | 8.00 to 9.00
Cc1ccc2cnc(Cn3cc(C(=O)NCc4c(C)cc5c(N)nccc5c4C)cn3)cc2c1 [Example 1, N-((1-amino-5,7-dimethylisoquinolin-6-yl)methyl)-1-((6-methylisoquinolin-3-yl)methyl)-1H-pyrazole-4-carboxamide] | > 9.00
Cc1cc2c(N)nccc2c(C)c1CNc1cc(OCc2cnc3ccccn23)cnn1 [Example 414, 6-(((5-(imidazo[1,2-a]pyridin-3-ylmethoxy)pyridazin-3-yl)amino)methyl)-5,7-dimethylisoquinolin-1-amine] | < 6.00
Cc1cc2c(N)nccc2c(C)c1CNC(=O)c1cnn(Cc2ccc(Cc3ccccn3)cc2)c1 [Example 165, N-((1-amino-5,7-dimethylisoquinolin-6-y1)methyl)-1-(4-(pyridin-2-ylmethyl)benzyl)-1H-pyrazole-4-carboxamide] | > 9.00
Cc1cc2c(N)nccc2c(C)c1CNc1cc(NCc2ccc3ncccc3c2)c(C(N)=O)nn1 [Example 452, 6-(((1-amino-5,7-dimethylisoquinolin-6-yl)methyl)amino)-4-((quinolin-6-ylmethyl)amino)pyridazine-3-carboxamide] | 7.00 to 8.00
